Experiments:
tPA = tPA expression (mRNA, tPA staining) during monocular deprivation; format: in vivo, mouse; conditions: mice subjected to MD and treated
Experimental: A: Effects of (1-3)IGF-1 (GPE) treatment on the expression levels of BDNF at mRNA level. […] (1-3)IGF-1 treatment is able to increase expression though not to control levels. The RNA levels were obtained with the micro-array analysis described in Tropea et al., 2006. B: Double staining for NeuN (green) and proBDNF (red) antibody. […] Anti-pro BDNF and anti-NeuN were obtained from CHEMICON and used at a concentration of 1:500. The solutions and time of incubations are the following: preincubation in 5% BSA, 0.1% triton, 10% serum, PBS. Incubation with the primary antibodies was carried out at 4 degrees for 3 days in the following solution: 2% BSA, 5% serum, 0.1% triton, PBS. After washings in PBS secondary biotinylated (for pro-BDNF) or Alexa conjugated (for NeuN) antibodies (1:200) were incubated for 2 hours in the same solution of the primary antibodies. The pro-BDNF labeling was detected by adding extravidine tritc (Sigma—1:300). C: Effects of (1-3)IGF-1 (GPE) treatment on the mRNA expression levels of tPA. […] Anti-tPA was purchased from Oxford Biomedical Research and used at a concentration of 1:500. The conditions for incubation were the following: free floating sections were pre-incubated in blocking solution: 10% serum, 0.3% triton, PBS and then left overnight in the primary antibody mix: 1% serum, 0.3% triton, PBS, anti-tPA 1:500, anti Neu-N 1:500. […]

Overall brain weight = format: in vivo, mouse; conditions: as a result of knockout and treatment (Discussion)
synaptic transmission = assay: Synaptic transmission during direct application of the molecules; format: cell-based, mouse; conditions: direct application of the molecule
Excerpt: rhIGF1 produced a similar improvement as (1-3)IGF-1 in all maturational signatures measured, including (A) synaptic transmission levels, and (B) circuit stability (by preventing ocular dominance plasticity) in P60 MeCP2 KO mice.
The above data focused on the (1-3)IGF-1 fragment of IGF1 to promote IGF1 signaling. We also have tested the effect of the full-length IGF1 peptide already approved for pediatric administration in human patients (for short stature indications). We have verified a correspondence in the effects of (1-3)IGF-1 and recombinant human IGF1 (rhIGF1).

MeCP2−/y mice = assay: Survival and disease progression (Kaplan-Meier); format: in vivo, mouse
Excerpt: A. (1-3) IGF-1 reduces the frequency of bradycardia in MeCP2 null mice. Pooled heart rate distributions observed across mice from different treatments, in beats per minute (bpm). The Y axis depicts the percent of observations within an experimental group that exceed a given bpm value (X axis). Comparisons are between 8 week old animals (WT or KO), some of which received (1-3)IGF-1 treatment for 6 weeks (KO-T). The KO distribution (pink) was left-shifted compared to the wild-type distribution (black), indicating a significant reduction in the distribution of heart rates. […] B. (1-3)IGF-1 treatment improves locomotor function in MeCP2 null mice. Baseline nocturnal activity was measured by placing animals in cages equipped with a movement detector (infrared beam). […] “N”=number of animals per group. C. (1-3)IGF-1 treated MeCP2 KO mice have longer life expectancy than vehicle treated controls. Kaplan-Meier survival curves for MeCP2-/y mice treated with vehicle (KO, red line) or (1-3)IGF-1 (KO-T, green line). […] MeCP2-/y mice were given daily IP injections of (1-3)IGF-1 (0.01 mg/g body weight/day) every day from 2 weeks of age onward. “n” is the number of mice per experimental group. (1-3)IGF-1 treatment: For the survival measurements, the nocturnal activity analysis and the immunoblot analysis, (1-3) IGF-1 (Bachem Biosciences # H22468) was administered daily via intra-peritoneal injections (0.01 mg/g body weight, vehicle=saline, 0.01% BSA). The treatment was started at P15 and maintained throughout the course of the experiments. For intracellular physiology experiments, the mice were injected daily (0.01 mg/g body weight, vehicle=saline, 0.01% BSA) for 2 weeks, from P15 to P28-P32 when they were used for acute slice preparation. For optical imaging experiments, mice were injected with (1-3) IGF-1 (0.02 mg/g body weight, vehicle=saline, 0.01% BSA) daily from the day of the lid suture to the day of imaging. Slice physiology preparation: Coronal sections (300 μm thick) at or near sensorimotor cortex were cut in <4° C. ACSF using a Vibratome. Slices were incubated at 37° C. for 20 minutes after slicing, and at room temperature for the remainder of the experiment. Slices were transferred to a Warner chamber and recordings were taken from visually identified pyramidal neurons located in layer 5. […] Cells were visualized with an Achroplan 40× water-immersion lens with infrared-DIC optics (Zeiss) and detected with an infrared camera (Hamamatsu) projecting to a video monitor. […] Then in current clamp 10 pulses (500 ms, 40-140 pA at 10 pA increments), were applied to quantify evoked firing rates and cellular excitability. […]

NCC(=O)N1CCC[C@H]1C(=O)N[C@@H](CCC(=O)O)C(=O)O [(1-3)IGF-1, glycyl-L-prolyl-L-glutamic acid]
tPA protein expression level, tPA staining (FIG. 8D) (tPA): strongly increased
tPA mRNA expression (FIG. 8C) (tPA; vs control and deprived animals): significantly up-regulated tPA mRNA expression relative to both control and deprived animals
overall brain weight (Overall brain weight): small changes were seen
synaptic activity / synaptic transmission levels (FIG. 9A) (synaptic transmission): striking enhancements of synaptic activity
life expectancy, Kaplan-Meier survival curves (FIG. 4C) (MeCP2−/y mice; KO-T vs vehicle treated littermates, P=0.54*10^−7, log rank test): significantly longer life expectancy
increase in life expectancy (MeCP2−/y mice; MeCP2−/y mice treated vs MeCP2 KO littermates, 0.01 mg/g body weight/day IP from 2 weeks of age): ~50%
0.5 probability survival (MeCP2−/y mice; MeCP2−/y mice treated, untreated KO ~60 days): 90 days
age at which symptoms develop (MeCP2−/y mice; treated MeCP2 knockout mice vs controls): at the same age as controls

— patent US7994127B2, “Treatment of rett syndrome” (Massachusetts Institute of Technology, priority 2007, dated 2011)
